Source: patent publication US20220259193A1, “KCNT1 INHIBITORS AND METHODS OF USE” (Praxis Precision Medicines, Inc., priority 2019, published 2022)

Molecular target: T1, KCNT1 (KNa1.1, Slack) (Homo sapiens, UniProt Q5JUK3)
T1 construct: expressed in transfected cells; host or cells: HEK-TREX (tetracycline-inducible HEK cell line)
T1 sequence (Q5JUK3 1-1230): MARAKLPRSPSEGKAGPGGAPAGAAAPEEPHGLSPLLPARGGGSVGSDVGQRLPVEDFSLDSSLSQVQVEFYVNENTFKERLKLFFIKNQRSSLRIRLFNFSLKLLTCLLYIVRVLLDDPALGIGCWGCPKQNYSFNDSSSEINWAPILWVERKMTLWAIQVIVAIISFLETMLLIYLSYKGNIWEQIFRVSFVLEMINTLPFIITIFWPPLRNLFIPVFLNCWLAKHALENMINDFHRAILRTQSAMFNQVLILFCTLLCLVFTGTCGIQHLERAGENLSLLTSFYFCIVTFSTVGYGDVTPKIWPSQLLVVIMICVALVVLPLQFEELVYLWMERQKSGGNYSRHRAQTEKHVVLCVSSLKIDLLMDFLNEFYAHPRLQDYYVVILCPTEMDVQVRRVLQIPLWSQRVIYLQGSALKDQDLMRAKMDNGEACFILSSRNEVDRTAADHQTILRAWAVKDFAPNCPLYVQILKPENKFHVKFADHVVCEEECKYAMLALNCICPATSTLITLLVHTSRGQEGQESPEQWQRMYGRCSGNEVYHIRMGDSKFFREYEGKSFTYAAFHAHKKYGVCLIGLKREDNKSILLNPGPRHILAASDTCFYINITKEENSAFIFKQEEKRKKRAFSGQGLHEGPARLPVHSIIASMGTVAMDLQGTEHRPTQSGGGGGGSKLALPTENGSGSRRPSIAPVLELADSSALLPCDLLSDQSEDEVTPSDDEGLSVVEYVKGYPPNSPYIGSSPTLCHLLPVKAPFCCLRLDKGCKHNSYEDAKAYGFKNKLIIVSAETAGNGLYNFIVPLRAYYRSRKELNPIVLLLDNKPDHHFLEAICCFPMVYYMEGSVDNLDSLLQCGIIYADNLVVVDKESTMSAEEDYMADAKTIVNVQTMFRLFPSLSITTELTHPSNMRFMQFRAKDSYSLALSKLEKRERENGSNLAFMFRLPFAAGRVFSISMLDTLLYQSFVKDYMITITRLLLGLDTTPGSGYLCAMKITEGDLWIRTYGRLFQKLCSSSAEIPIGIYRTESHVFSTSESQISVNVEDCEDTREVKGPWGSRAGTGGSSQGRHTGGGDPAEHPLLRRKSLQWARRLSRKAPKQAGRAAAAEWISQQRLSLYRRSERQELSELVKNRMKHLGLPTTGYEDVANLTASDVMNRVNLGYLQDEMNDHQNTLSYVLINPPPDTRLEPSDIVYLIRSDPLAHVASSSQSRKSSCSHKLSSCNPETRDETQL
Experiment: KCNT1 patch clamp assay (SyncroPatch 384PE automated patch clamp)
Type: cell-based
Conditions: tetracycline inducible HEK-TREX cell line; perforated patch; step from −80 mV to 0 mV; room temperature; read-out: KCNT1-WT IC50
How it was run: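 Tetracycline-inducible HEK-TREX cells; perforated-patch (10 μM escin) population recordings at room temperature, holding −80 mV with 100 ms step to 0 mV.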

Structure (SMILES) | IC50 [nM]
COc1cc(-c2noc([C@H](C)NC(=O)OC(C)(C)C)n2)cc(C)n1 [Compound 287, tert-butyl (S)-(1-(3-(2-methoxy-6-methylpyridin-4-yl)-1,2,4-oxadiazol-5-yl)ethyl)carbamate] | ≤ 1000
Cn1nc(C2CC2)cc1C(=O)NC(c1ccccc1)c1nc(-c2cccc(F)c2)no1 (stereo not drawn) [Compound 51] | 1000 to 20000
Cn1nc(C2CC2)cc1C(=O)NC1(c2nc(-c3cccc(F)c3)no2)CCCCC1 [Compound 66] | ≤ 1000
Cc1cccc(-c2noc(C(C)NC(=O)c3c(C)cnn3C(C)C)n2)c1 (stereo not drawn) [Compound 55] | 1000 to 20000
C[C@H](NC(=O)c1cn(C)nc1C(C)(C)C)c1nc(-c2cccc(F)c2)no1 [Compound 162] | 1000 to 20000
C[C@H](NC(=O)c1cc(C(F)(F)F)nn1C)c1nc(-c2ccnc(OC3CC3)c2)no1 [Compound 207, (S)—N-(1-(3-(2-cyclopropoxypyridin-4-yl)-1,2,4-oxadiazol-5-yl)ethyl)-1-methyl-3-(trifluoromethyl)-1H-pyrazole-5-carboxamide] | ≤ 1000
COC(=O)CC(NC(=O)c1cc(C(F)(F)F)nn1C)c1nc(-c2cccc(F)c2)no1 (single isomer, unassigned) [Compound 125, methyl 3-[3-(3-fluorophenyl)-1,2,4-oxadiazol-5-yl]-3-[[2-methyl-5-(trifluoromethyl)pyrazole-3-carbonyl]amino]propanoate] | ≤ 1000
COC(=O)c1cccc(-c2noc(C(C)NC(=O)c3cc(C(F)(F)F)nn3C)n2)c1 (stereo not drawn) [Compound 181, methyl 3-(5-(1-(1-methyl-3-(trifluoromethyl)-1H-pyrazole-5-carboxamido)ethyl)-1,2,4-oxadiazol-3-yl)benzoate] | ≤ 1000
Cn1nc(C(F)(F)F)cc1C(=O)N[C@@H](CCS(C)(=O)=O)c1nc(-c2cccc(F)c2)no1 (single isomer, unassigned) [Compound 144] | 1000 to 20000
CC(C)Oc1cc(-c2noc([C@H](C)NC(=O)c3cc(-c4ccc(F)cc4)nn3C)n2)ccn1 [Compound 223, (S)-3-(4-fluorophenyl)-N-(1-(3-(2-isopropoxypyridin-4-yl)-1,2,4-oxadiazol-5-yl)ethyl)-1-methyl-1H-pyrazole-5-carboxamide] | ≤ 1000
C[C@H](NC(=O)c1cc(C(F)(F)F)nn1C(F)F)c1nc(-c2cccc(Cl)c2)no1 (single isomer, unassigned) [Compound 83] | 1000 to 20000
C[C@H](NC(=O)c1cn(C)nc1C(F)F)c1nc(-c2ccnc(C(F)(F)F)c2)no1 [Compound 235] | ≤ 1000
C[C@H](NC(=O)c1cc(C(F)(F)F)nn1Cc1cccnc1)c1nc(-c2ccnc(C(F)(F)F)c2)no1 [Compound 253, (S)-1-(pyridin-3-ylmethyl)-3-(trifluoromethyl)-N-(1-(3-(2-(trifluoromethyl)pyridin-4-yl)-1,2,4-oxadiazol-5-yl)ethyl)-1H-pyrazole-5-carboxamide] | ≤ 1000
CC[C@H](NC(=O)c1cc(C)nn1C1CCOCC1)c1nc(-c2ccnc(C)c2)no1 [Compound 217, (S)-3-methyl-N-(1-(3-(2-methylpyridin-4-yl)-1,2,4-oxadiazol-5-yl)propyl)-1-(tetrahydro-2H-pyran-4-yl)-1H-pyrazole-5-carboxamide] | 1000 to 20000
CC[C@H](NC(=O)c1cc(C(F)(F)F)nn1C)c1nc(-c2cccc(F)c2)no1 [Compound 105] | ≤ 1000
C[C@H](NC(=O)c1cc(C(F)(F)F)nn1C)c1nc(-c2ccnc(C3CCC3)c2)no1 (single isomer, unassigned) [Compound 278] | ≤ 1000
Cc1ccnc(-c2noc([C@H](C)NC(=O)OC(C)(C)C)n2)c1 [Compound 285, tert-butyl (S)-(1-(3-(4-methylpyridin-2-yl)-1,2,4-oxadiazol-5-yl)ethyl)carbamate] | ≥ 20000
C[C@H](NC(=O)c1ccnn1C1CCCC1)c1nc(-c2ccnc(C3CC3)c2)no1 [Compound 270] | ≤ 1000

Further lines, results first:

IC50 [nM] | Structure (SMILES)
1000 to 20000 | COC1(c2cc(-c3noc([C@H](C)NC(=O)OC(C)(C)C)n3)ccn2)CC1 [Compound 262, tert-butyl (S)-(1-(3-(2-(1-methoxycyclopropyl)pyridin-4-yl)-1,2,4-oxadiazol-5-yl)ethyl)carbamate]
≤ 1000 | COC(=O)CC(NC(=O)c1cc(C(F)(F)F)nn1C)c1nc(-c2cccc(F)c2)no1 (single isomer, unassigned) [Compound 126, methyl 3-[3-(3-fluorophenyl)-1,2,4-oxadiazol-5-yl]-3-[[2-methyl-5-(trifluoromethyl)pyrazole-3-carbonyl]amino]propanoate]
1000 to 20000 | Cc1cc(C(=O)N[C@@H](C)c2nc(-c3ccnc(C(F)(F)F)c3)no2)n(C)n1 [Compound 252]
1000 to 20000 | Cc1nn(C(C)C)cc1C(=O)N[C@@H](C)c1nc(-c2ccc(F)cc2)no1 [Compound 90]
≤ 1000 | COCCC(NC(=O)c1cc(C(F)(F)F)nn1C)c1nc(-c2cccc(F)c2)no1 (stereo not drawn) [Compound 170]
1000 to 20000 | COC1(c2cc(-c3noc([C@H](C)NC(=O)c4cc(C(F)(F)F)nn4C)n3)ccn2)CC1 [Compound 263, (S)—N-(1-(3-(2-(1-methoxycyclopropyl)pyridin-4-yl)-1,2,4-oxadiazol-5-yl)ethyl)-1-methyl-3-(trifluoromethyl)-1H-pyrazole-5-carboxamide]
≤ 1000 | CC(C)Oc1cc(-c2noc([C@H](C)NC(=O)OC(C)(C)C)n2)ccn1 [Compound 286, tert-butyl (S)-(1-(3-(2-isopropoxypyridin-4-yl)-1,2,4-oxadiazol-5-yl)ethyl)carbamate]
≥ 20000 | Cc1cccc(-c2noc(C(C)NC(=O)c3cnn(C(C)C)c3C)n2)c1 (stereo not drawn) [Compound 59]
≤ 1000 | Cc1nn(-c2ccc(F)cc2)cc1C(=O)N[C@@H](C)c1nc(-c2cccc(F)c2)no1 [Compound 154]
≤ 1000 | Cc1nn(C(C)C)cc1C(=O)N[C@@H](C)c1nc(-c2ccc(Cl)c(F)c2)no1 [Compound 86]
1000 to 20000 | CC(NC(=O)c1cc(C(F)(F)F)nn1C)c1nc(-c2cccc(CO)c2)no1 (stereo not drawn) [Compound 176, N-(1-(3-(3-(hydroxymethyl)phenyl)-1,2,4-oxadiazol-5-yl)ethyl)-1-methyl-3-(trifluoromethyl)-1H-pyrazole-5-carboxamide]
≤ 1000 | CC[C@@H](NC(=O)c1cc(C2CC2)nn1C)c1nc(-c2cccc(F)c2)no1 [Compound 61]
≤ 1000 | C[C@H](NC(=O)c1ccnn1CC1CC1)c1nc(-c2ccnc(C3CCCC3)c2)no1 [Compound 309, (S)—N-(1-(3-(2-cyclopentylpyridin-4-yl)-1,2,4-oxadiazol-5-yl)ethyl)-1-(cyclopropylmethyl)-1H-pyrazole-5-carboxamide]
≥ 20000 | CNC(=O)C[C@H](NC(=O)c1cc(C(F)(F)F)nn1C)c1nc(-c2cccc(F)c2)no1 (single isomer, unassigned) [Compound 115]
1000 to 20000 | C[C@H](NC(=O)c1cn(C)nc1C(F)F)c1nc(-c2cccc(F)c2)no1 [Compound 188, (S)-3-(difluoromethyl)-N-(1-(3-(3-fluorophenyl)-1,2,4-oxadiazol-5-yl)ethyl)-1-methyl-1H-pyrazole-4-carboxamide]
1000 to 20000 | Cc1nn(C(C)C)cc1C(=O)N[C@@H](C)c1nc(-c2cccc(OC(F)(F)F)c2)no1 [Compound 100]
≤ 1000 | CC(NC(=O)c1cc(C(F)(F)F)nn1C)c1nc(-c2ccnc(C3CCC3)c2)no1 (single isomer, unassigned) [Compound 279]
1000 to 20000 | C[C@H](NC(=O)c1cn(C)nc1C1CCC1)c1nc(-c2cccc(F)c2)no1 [Compound 155]
≤ 1000 | COCC(NC(=O)c1cc(C(F)(F)F)nn1C)c1nc(-c2cccc(C)c2)no1 (stereo not drawn) [Compound 72]
1000 to 20000 | Cc1cccc(-c2noc(C(C)NC(=O)c3cc(C)nn3C(C)(C)C)n2)c1 (stereo not drawn) [Compound 11]
≤ 1000 | CCn1cc(C(=O)N[C@@H](C)c2nc(-c3cccc(F)c3)no2)c(C(F)(F)F)n1 [Compound 165]
